The values below come from patent US9750784B2 (priority 2013, dated 2017).

The subject of data set [1] is carrageenan-induced inflammation of the rat knee joint. The experiment in a line: Anti-hyperalgesic action in animals (carrageenan injected intraarticularly into rat knee joint, Hargreaves test). Format: in vivo. Particulars: intraarticular 30 minutes before CAR. How it is done:
In order to induce an inflammation reaction, a carrageenan solution (CAR, 1%, 50 μl) was injected intraarticularly on one side into a rat knee joint. The uninjected side was used for control purposes. Six animals per group were used. The […] was determined by means of a micrometer screw (medial-lateral on the knee joint), and the thermal hyperalgesia was determined by means of a directed infrared light source by the Hargreaves method (Hargreaves et al. 1988) on the sole of the foot. Since the site of inflammation (knee joint) is different from the site of measurement (sole of the paw), use is made here of the term secondary thermal hyperalgesia, the mechanisms of which is of importance for the discovery of effective analgesics.
Experimental description of thermal hyperalgesia (Hargreaves test): the experimental animal is placed in a plastic chamber on a quartz sheet. Before testing, the experimental animal is firstly given about 5-15 minutes time to familiarise itself with the environment. […] Light reflected by the paw is recorded as long as the experimental animal sits still. Withdrawal of the paw interrupts this reflection, after which the infrared light source is switched off and the time from switching on to switching off is recorded. […]

For data set [2] the following is noted: pooled synovial fluid of patients, Powell et al. Table II; cited from earlier work.
For data set [3], the system named is cartilage explant cultures. The settings on record: pH 5.5, explant cultures (mouse, cow or human); cited from earlier work.
The nature of data set [4]: Toxicity and genotoxicity.
A short description of data set [5]: In vivo joint microdialysis in guinea pig knee joint. Also noted: species or system guinea pigs (Dunkin Hartley). Particulars: 1 mg/joint in 50 μl as suspension, microdialysis eluates.
Experimental: (§1) For these investigations, microdialysis probes from CMA (reference number 000082; CMA 7; microdialysis sample 1 mm 3/pkg) fitted with a cuprophane membrane and having a pore size of 6 kDa were used. The eluate flow rate was 0.5 μl/min.
A short description of data set [6]: In vitro microdialysis in bovine synovial fluid. Format: in vitro ADME. The settings on record: 3 mg per ml, 6 kDa membrane.
Text: Since the synovial fluid on the one hand represents a complex matrix for the analytical determination of peptides and on the other hand only the free, i.e. non-protein-bound medicament fraction is relevant for the action, the microdialysis method was employed. The eluate obtained from the microdialysis enables analysis of free medicament levels from the complex matrix of the synovial fluid. The reason for this is that a barrier membrane (microdialysis membrane) which only molecules up to a certain size is able to pass through is employed. This “pore size” determines the concentration of the medicament in the eluate besides the flow rate of the eluate and the free concentration of medicament present in the synovial fluid as driving force for material exchange.
as §1
Firstly, release kinetics in bovine synovial fluid were investigated and compared with triamcinolone (Triam Injekt® 20 mg)—a medicament approved for intraarticular injection. […] 3 mg of medicament per ml of synovial fluid were employed in a glass vessel, which corresponds approximately to the concentration conditions after intraarticular injection into the knee joint.
Data set [7] is described as follows: Stability of pepstatin in bovine synovial fluid. Format: in vitro ADME. The settings on record: pooled bovine synovial fluid, 37° C., initial 1 μM.
Experimental: In order to check the stability of individual compounds, a pool of 4 different bovine synovial fluids is mixed. To this end, about 1 ml per SF are used. The mixture is prepared directly in a 5 ml glass vessel in order to minimise any absorption effects. The SFs are mixed thoroughly, but carefully. No air bubbles or foam should form. To this end, a vortex unit is used at the lowest speed. The compounds to be tested are tested in an initial concentration (unless requested otherwise) of 1 μM. After addition of the substance, the batch is again mixed thoroughly and carefully. For visual monitoring, all SF batches are photographed, and the pictures are filed in the eLabBio file for the corresponding experiment. The batches are incubated in the incubator for 48 h at 37° C. and 7.5% CO2.
The sampling is carried out after the pre-agreed times (unless requested otherwise, see below). 4×200 μl of the SF are removed from the mixture at each point in time and transferred directly into 0.5 ml “low-binding” Eppendorf vessels. […]
The samples are stored in “low-binding” Eppendorf vessels at −20° C. The samples are subsequently measured quantitatively. […]
The concentrations measured (ng/ml) are plotted against time in a graph (Graph Pad Prism®). The percentage stability of the substance is determined here. […]
The target in data set [8] is T1, cathepsin D isolated from the human liver (Homo sapiens, UniProt P07339).
T1 construct: cathepsin D isolated from the human liver (Sigma-Aldrich); purchased Sigma-Aldrich; host or cells: human liver (tissue-derived)
The data set is described as follows: In-vitro fluorescence assay for identification of cathepsin D inhibitors. Format: biochemical. Particulars: pH 5.5. How it is done: In order to identify modulators of cathepsin D activity, a continuous enzymatic test was carried out with a synthetic peptide which carries a fluorescent group (MCA=(7-methoxycoumarin-4-yl)acetyl) which is quenched by energy transfer from a Dpn (2,4 dinitrophenyl) group on the same molecule, in Greiner 384-well nb microtitre plates. Cleavage of the peptidic substrate by cathepsin D causes an increase in the fluorescence intensity. In order to determine the efficacy of substances, the time-dependent increase in the fluorescence intensity in the presence of the substance was compared with the time-dependent increase in fluorescence in the absence of substances. […] The enzyme employed was cathepsin D isolated from the human liver (Sigma-Aldrich) in a final concentration of 1.4 nM. The test was carried out in 100 mM sodium acetate buffer, 1.25% (v/v) of DMSO, 0.25% (w/v) of Chaps, pH 5.5. […] After carrying out a starting-point fluorescence measurement (excitation wavelength 340 nm/emission wavelength 450 nm) using an Envision multilabel reader (Perkin Elmer), the reaction was incubated at room temperature for 60 min. The amount of peptide fragment cleaved off during the reaction time was subsequently measured by determination of the increase in the fluorescence intensity at 450 nm (excitation wavelength 340 nm).

The next data set can be described thus: Cartilage penetration. Format: in vitro ADME.
A short description of data set [9]: Pharmacokinetic data after intravenous and oral administration. Type of data set: in vivo, Wistar rats. Particulars: Wistar rat. On the procedure:
The test substances were dissolved in DMSO/PEG200/water (2/60/38 v/v) with a final concentration of 0.8 mg/ml, and a dose of 0.2 mg/kg i.v. and 0.5 mg/kg orally was administered. […] The blood samples were collected in centrifuge tubes containing Li heparin and centrifuged at about 10,000 g at 4° C. for 3 min. The plasma obtained therefrom was immediately frozen at −20° C. and stored until analysis. The plasma concentrations were determined by means of a standard LC-MS/MS method. The pharmacokinetic parameters (Clp, Vss, T1/2, F) were determined via an NCA analysis.

In a further data set the test system is ACLT tMx arthrosis model. The experiment in a line: Efficacy in vivo in arthrosis, ACLT tMx model. Also noted: species or system rats. Particulars: rat ACLT tMx, 1 mg in 30 μl intraarticular, 6 weeks, histological assessment. On the procedure: Rats were selected as experimental animals. After shaving and disinfection, the operation area is opened by means of a medial skin cut with a length of about 1 cm. The knee joint capsule is prepared and the medial patellar ligament is exposed. After opening of the joint capsule, cutting of the medial parapatellar ligaments and lateral displacement of the patella, the anterior cruciate ligament is cut using a curved knife with a blunt end (ACLT=anterior cruciate ligament transection). The anterior and posterior ligaments holding the meniscus in place are subsequently prepared and cut and the meniscus is removed tMx (resection of the medial meniscus). After repositioning of the patella, the joint is finally rinsed with sterile saline solution in order to remove any blood coagulum that may have formed. The patella is repositioned, and the medial patellar ligament is re-fixed by means of continuous suture with sealing of the capsule. The muscles are likewise sutured. The skin is subsequently closed by means of single stitches. The operation duration is about 10 minutes. The postoperative trial duration was 6 weeks. For intraarticular injection, the animals are anaesthetised with 1.5-2% by vol. of isoflurane. […] Two sections in the region of the exposure zone were selected from each animal and assessed by two experienced people using an assessment system. […]

Data set [10] in a line: Pharmacokinetic data after intraarticular injection. Particulars: for Average joint diameter [mm]: rat knee, about 700 μg suspension intraarticular. Format: in vivo, Lister hooded rats. How it is done: For this study (KK-Rat-12-003), 14 male Lister hooded rats were used. All rats were given a single intraarticular injection into both knee joints at time “0”. An injection consisted of 30 μl in which about 700 μg of compound were homogeneously suspended (suspension=compound in 0.5% Methocel K4M with 0.25% Tween20 in PBS). The suspension was administered via a 25 G cannula. […] At each point in time indicated in Table 2, animals were sacrificed, the knee joints were prepared (removal of skin and muscle tissue) and frozen for further processing.
The deep-frozen joints were briefly thawed, comminuted as well as possible using bone scissors, and 4 times the volume of 80% ethanol was subsequently added. The mixture was subsequently homogenised using an Ultraturrax, the extract was shaken at RT for 20 min and then stored at −20° C. for at least 30 min. The mixture was then centrifuged at 13,000 rpm for 5 min, a 10 μl aliquot of the supernatant was diluted 1:5000 with internal standard solution, transferred into a PCR plate and analysed.
20 μl of internal standard solution were added to 20 μl of plasma, 100 μl of methanol were added, and the mixture was shaken for 5 min. The extracts were then stored at −20° C. for at least 30 min and subsequently centrifuged at 13,000 rpm for 5 min. 80 μl of the supernatant were transferred into a PCR plate and analysed.
All samples were analysed with the aid of a UPLC-MS/MS system.

Square brackets hold non-standard residues; d marks the D form. Peptide text beside a SMILES is read from it. * marks the point of attachment. Sta = CC(C)C[C@H](N)[C@@H](O)CC(=O)O; Isovaleryl = CC(C)CC(=O)*

T1 sequence (P07339 65-161 limits assumed): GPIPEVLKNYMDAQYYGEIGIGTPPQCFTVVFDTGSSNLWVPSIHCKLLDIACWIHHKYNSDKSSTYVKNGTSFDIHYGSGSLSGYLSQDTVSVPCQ
T1 sequence (P07339 169-412 limits assumed): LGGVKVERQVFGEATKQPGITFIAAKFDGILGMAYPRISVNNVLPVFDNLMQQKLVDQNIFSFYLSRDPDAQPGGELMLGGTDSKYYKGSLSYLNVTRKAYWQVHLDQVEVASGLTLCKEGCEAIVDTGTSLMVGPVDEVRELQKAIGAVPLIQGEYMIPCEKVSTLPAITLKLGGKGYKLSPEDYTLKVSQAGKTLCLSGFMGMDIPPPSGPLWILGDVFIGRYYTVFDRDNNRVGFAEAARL

Take `C[C@]12C=CC(=O)C=C1CC[C@H]1[C@@H]3C[C@@H](O)[C@](O)(C(=O)CO)[C@@]3(C)C[C@H](O)[C@@]12F` [TAC, Triamcinolone, reference compound]: the “reduction of CAR-induced swelling” value in data set [1] (rat knee joint, TAC 10 μg/joint) is “capable of reducing”.

With pertussis toxin, in data set [2], the “half life in synovial fluid” value is “barely two days”.

Turning to `CC(C)c1nc(CN(C)C(=O)N[C@H](C(=O)N[C@@H](Cc2ccccc2)C[C@H](O)[C@H](Cc2ccccc2)NC(=O)OCc2cncs2)C(C)C)cs1` [ritonavir, reference compound], the “inhibition of autodigestion of the cartilage” value in data set [3] is listed as “inhibited virtually completely”.

With `CC(C)CC(=O)N[C@H](C(=O)N[C@H](C(=O)N[C@@H](CC(C)C)[C@@H](O)CC(=O)N[C@@H](C)C(=O)N[C@@H](CC(C)C)[C@@H](O)CC(=O)O)C(C)C)C(C)C` [Pepstatin, (3S,4S)-3-hydroxy-4-[(S)-2-((3S,4S)-3-hydroxy-6-methyl-4-{(S)-3-methyl-2-[(S)-3-methyl-2-(3-methyl-butyrylamino)butyrylamino]butyrylamino}heptanoylamino)-propionylamino]-6-methylheptanoic acid] (Isovaleryl-VV[Sta]A[Sta]-OH), the “reduction of thermal hyperalgesia” value in data set [1] (rat, Hargreaves test) is listed as “able to reduce the extent of thermal hyperalgesia as a function of the dose”. The toxicity or genotoxicity entry in [4] was “no measurable toxicity or genotoxicity”. In addition, the “time after intraarticular injection up to which significant levels are detectable in the joint” value in data set [5] is reported as “up to 14 days”. Further, in data set [6], the “levels of unbound medicament in microdialysis eluate” value was “very high levels”. The “period of stability in synovial fluid” value in data set [7] is reported as “at least two weeks”. The “inhibition of cathepsin D (in words)” value in data set [8] is recorded as “nanomolar range”. For the same compound, the cartilage penetration entry in the data set “Cartilage penetration” is listed as “good”. Also, the “plasma concentrations after oral administration” value in data set [9] (0.5 mg/kg orally) is reported as “below the detection limit”. This compound also showed a clearance in data set [9] (i.v. 0.2 mg/kg) above 100 % liver blood flow. In addition, in data set [9] (i.v. 0.2 mg/kg), the distribution volume entry is “average”. This compound gave a half-life in [9] (male, plasma, iv, i.v. 0.2 mg/kg) of around 8.4 min. For the same compound, in the data set with ACLT tMx arthrosis model, the “efficacy in vivo in arthrosis” value is recorded as “significant efficacy”. Besides, the “Average joint diameter [mm]” value was found to be 10.08 mm in data set [10] (0 days after injection); 10.88 mm in data set [10] (1 day after injection); 10.50 mm in data set [10] (2 days after injection); 10.12 mm in [10] (4 days after injection); 10.35 mm in [10] (7 days after injection); 10.14 mm in data set [10] (9 days after injection). For the same compound, the “Average joint diameter [mm]” value is listed as 10.37 mm in data set [10] (11 days after injection); 10.24 mm in data set [10] (13 days after injection); 10.45 mm in [10] (15 days after injection); 10.18 mm in data set [10] (20 days after injection); 10.50 mm in data set [10] (27 days after injection). Besides, the systemic exposure result in [10] (rat, intraarticular administration of a suspension) is recorded as “very low”. For the same compound, in data set [10] (rat, intraarticular suspension, very low concentration), the “time after administration up to which detectable in the plasma” value is “up to 28 days”. Further, in [10] (rat, single intraarticular injection of about 700 μg suspension into both knee joints), the “changes of in-life parameters (body weight, knee swelling, relieving postures)” value is “No peculiarities”. For the same compound, in data set [3], the “inhibition of autodigestion of the cartilage” value is “inhibited virtually completely”.

In general, half-life refers to the time needed for the level to fall by half in the phase considered.
